The numbers were not newly measured in patent US20210077514A1, “Nutraceutical Composition for Improving Overall Health” (priority 2019, published 2021), which cites them from elsewhere.

SMILES strings stand for the structures. Read-outs that look alike come from different tables or passages of the source.

Experiment in data set [1]: not given
This is another data set of the same source.

For data set [2] the following is noted: in vivo.
The conditions of data set [3]: aged mice, one week's treatment.
The conditions of data set [4]: AD-model mice.
Experiment in data set [5]: not given
This is another data set of the same source.

Another data set has as its system photoreceptor. To be noted: in vivo.
The conditions of data set [6]: aged mice.
For data set [7] the following is noted: FXN-KO mouse.
For data set [8] the following is noted: aging mice, long-term treatment.
For data set [9] the following is noted: 0.08% astaxanthin fed, vs control group.
The conditions of data set [10]: compared to canthaxanthin and β-carotene.
The conditions of data set [11]: spontaneously hypertensive corpulent rats; mice on high fat plus high fructose diets.
The subject of a further data set is lipid peroxidation. To be noted: ethanol induced gastric ulcer rats and skin cancer rats; astaxanthin and its esters.
The conditions of data set [12]: diabetic mice vs control group.
Experiment in data set [13]: not given
The source holds these as a separate data set.

The subject of data set [14] is superoxide dismutase, thioredoxin reductase, paraoxonase. To be noted: oxidative-induced rabbits, diet supplement.
For data set [15] the following is noted: young healthy adult female human subjects.
The next data set has as its system HepG2 cells. To be noted: HepG2 cells and primary hepatocytes.
For data set [16] the following is noted: from the liver into the bile.
A further data set has as its system adipocytes. To be noted: mouse, in vivo.
The next data set deals with senescent cells. To be noted: H2O2-induced, via activation of AMPK pathway.
For data set [17] the following is noted: chronic heart failure patients.
For data set [18] the following is noted: in vivo. The source holds these as a separate data set.
The conditions of data set [19]: patients with T2DM.
For data set [20], the system named is MCF-7 breast cancer cells.
The conditions of data set [21]: mouse model.
For data set [22] the following is noted: after 3 years.
The conditions of data set [23]: 8-10 years after therapy.
For data set [24] the following is noted: 850 mg twice daily, mean follow-up ~3 years.
Experiment in data set [25]: not given
The source holds these as a separate data set.

The subject of data set [26] is diploid fibroblasts and mesenchymal stem cells.
For data set [27] the following is noted: type 2 diabetes and mild to moderate depression.

As to `NC(=O)c1ccc[n+]([C@@H]2O[C@H](COP(=O)([O-])O)[C@@H](O)[C@H]2O)c1` [Nicotinamide Mononucleotide, nicotinamide mononucleotide], the intolerance of glucose result (in vivo) is reported as “reversal of the intolerance of glucose”. The “levels of NAD+” value (liver and muscle) was “significantly increased”. The “homeostasis of mitochondria and biochemical markers of muscle-health” value in data set [1] (22 months old mice, to level of six months old mice) is “restore the homeostasis of mitochondria”. Moreover, the age-related physiological declines entry in data set [1] (old mice) is “reduce the age-related physiological declines”. In addition, in data set [2], the “NAD+ levels within the heart” value was “increase the NAD+ levels within the heart” and the “protection of heart from I/R injuries” value is reported as “protect the heart from injuries of I/R”. Also, the “cells after DNA damage repair” value in [3] was “indistinguishable from the cells of the young mice”. The cognition result in data set [4] is reported as “restore cognition within AD-model mice”. The “death rate of brain cell” value with brain cell is given as “lower the death rate of brain cell”. The “impaired tolerance of glucose” value in [5] (only one dose) is “sufficient in normalizing the impaired tolerance of the glucose”. Further, in data set [5] (over sixty minutes), the “levels of NAD+” value was “significant rises within the levels of NAD+”. The degeneration of photoreceptor result with photoreceptor is reported as “prevent degeneration of photoreceptor”. In data set [6], the aortic stiffness result is reported as “normalizing the aortic stiffness”. Besides, the cardiac function result in data set [7] was “restored near the normal levels”.

As for `CC1=C(/C=C/C(C)=C/C=C/C(C)=C/C=C/C=C(C)/C=C/C=C(C)/C=C/C2=C(C)C(=O)[C@@H](O)CC2(C)C)C(C)(C)C[C@H](O)C1=O` [astaxanthin], the “age-related oxidative stress and inflammatory response” value in [8] was “prevented the accumulation of age-related oxidative stress and inflammatory response”. For the same molecule, the “heart mitochondrial membrane potential and contractility index” value in [9] is “higher heart mitochondrial membrane potential and contractility index”. For the same molecule, the antitumor activity entry in data set [10] is listed as “significant antitumor activity”. The insulin sensitivity result in data set [11] is “Improved insulin sensitivity”. The anti-lipid peroxidation activity with lipid peroxidation is 80%. Further, the urinary albumin level entry in data set [12] is “significantly lower than the control group”. Also, the “activity of natural killer cells” value in data set [13] (eight week supplementation) is “improved activity of natural killer cells”. Also, in data set [13] (in vivo), the “blood levels of astaxanthin” value is “increased blood levels of astaxanthin”. Further, in data set [14], the “paraoxonase activity in serum” value is “inhibited”; the “superoxide dismutase and thioredoxin reductase activity in serum” value is “enhanced activity of superoxide dismutase and thioredoxin reductase”. The “DNA oxidative damage biomarker” value in [15] is reported as “reduced the DNA oxidative damage biomarker”.

With `COc1ccc2cc3[n+](cc2c1OC)CCc1cc2c(cc1-3)OCO2` [berberine], the “cholesterol and triglyceride synthesis” value with HepG2 cells was “inhibit cholesterol and triglyceride synthesis”. Besides, in [16], the cholesterol excretion result was “increases cholesterol excretion from the liver into the bile”. Further, the adipocytes result in the data set on adipocytes was “shrunk adipocytes”. Moreover, in the data set on senescent cells, the development of senescence result is “significantly prevented the development of senescence”. In data set [17], the “frequency and complexity of ventricular premature complexes” value was “decreased the frequency and complexity of ventricular premature complexes”; the “left ventricular ejection fraction” value is recorded as “increased the left ventricular ejection fraction”. Moreover, in data set [18], the “serum cholesterol, triglycerides and LDL-C” value is “reduced serum cholesterol, triglycerides and LDL-C”. The “alanine and aspartate transaminase levels” value in data set [19] is “reduces alanine and aspartate transaminase levels”. In addition, the “proliferation of MCF-7 breast cancer cells” value in data set [20] is on record as “inhibits the proliferation”.

Take `CN(C)C(=N)N=C(N)N` [metformin]: in data set [21], the “lifespan and health span” value is “extends both lifespan and health span”. Also, the “body weight, LDL-cholesterol, atherosclerosis progression” value in data set [22] was “reductions in body weight, LDL-cholesterol”. Further, in data set [22], the “carotid artery intima-media thickness (primary outcome)” value is given as “no difference in the primary outcome”. For the same molecule, the “cognitive function, impact of long-term use” value in [23] is on record as “did not show negative impact”. Further, the lifespan result in the data set on nematodes was “extends the lifespan of nematodes”. Besides, the “reduction of incidence of T2DM compared to placebo” value in data set [24] is on record as 31%. Also, the “reduction of likelihood of CVD” value in data set [25] (otherwise healthy individuals) is 6%; in data set [25] (those at high cardiovascular risk), 48%; in [25] (those at risk of frailty) it was 18%. In data set [26] (chronic low-dose treatment), the “aging in human cells” value is “delays aging in human cells”. In addition, the “expression of GPx7” value in [26] (low-dose treatment, by activating Nrf2) is “upregulates the expression of endoplasmic reticulum-localized GPx7”. Also, the depressive symptoms entry in data set [27] is “improved depressive symptoms”.

Consider `Oc1ccc(C=Cc2cc(O)cc(O)c2)cc1` [resveratrol], for which the uptake of glutamate result with glial cells was “increase the uptake of glutamate”. In addition, the “growth rate of leukaemia cells” value with leukaemia cells is recorded as “stop the growth rate of leukaemia cells”.
